{"source": "patent US8138183B2", "about": "“Morpholino pyrimidine derivatives used in diseases linked to mTOR kinase and/or PI3K” (AstraZeneca AB, priority 2007, dated 2012)", "target": "recombinant mTOR (Homo sapiens, UniProt P42345)", "sequence (P42345 1362-2549)": "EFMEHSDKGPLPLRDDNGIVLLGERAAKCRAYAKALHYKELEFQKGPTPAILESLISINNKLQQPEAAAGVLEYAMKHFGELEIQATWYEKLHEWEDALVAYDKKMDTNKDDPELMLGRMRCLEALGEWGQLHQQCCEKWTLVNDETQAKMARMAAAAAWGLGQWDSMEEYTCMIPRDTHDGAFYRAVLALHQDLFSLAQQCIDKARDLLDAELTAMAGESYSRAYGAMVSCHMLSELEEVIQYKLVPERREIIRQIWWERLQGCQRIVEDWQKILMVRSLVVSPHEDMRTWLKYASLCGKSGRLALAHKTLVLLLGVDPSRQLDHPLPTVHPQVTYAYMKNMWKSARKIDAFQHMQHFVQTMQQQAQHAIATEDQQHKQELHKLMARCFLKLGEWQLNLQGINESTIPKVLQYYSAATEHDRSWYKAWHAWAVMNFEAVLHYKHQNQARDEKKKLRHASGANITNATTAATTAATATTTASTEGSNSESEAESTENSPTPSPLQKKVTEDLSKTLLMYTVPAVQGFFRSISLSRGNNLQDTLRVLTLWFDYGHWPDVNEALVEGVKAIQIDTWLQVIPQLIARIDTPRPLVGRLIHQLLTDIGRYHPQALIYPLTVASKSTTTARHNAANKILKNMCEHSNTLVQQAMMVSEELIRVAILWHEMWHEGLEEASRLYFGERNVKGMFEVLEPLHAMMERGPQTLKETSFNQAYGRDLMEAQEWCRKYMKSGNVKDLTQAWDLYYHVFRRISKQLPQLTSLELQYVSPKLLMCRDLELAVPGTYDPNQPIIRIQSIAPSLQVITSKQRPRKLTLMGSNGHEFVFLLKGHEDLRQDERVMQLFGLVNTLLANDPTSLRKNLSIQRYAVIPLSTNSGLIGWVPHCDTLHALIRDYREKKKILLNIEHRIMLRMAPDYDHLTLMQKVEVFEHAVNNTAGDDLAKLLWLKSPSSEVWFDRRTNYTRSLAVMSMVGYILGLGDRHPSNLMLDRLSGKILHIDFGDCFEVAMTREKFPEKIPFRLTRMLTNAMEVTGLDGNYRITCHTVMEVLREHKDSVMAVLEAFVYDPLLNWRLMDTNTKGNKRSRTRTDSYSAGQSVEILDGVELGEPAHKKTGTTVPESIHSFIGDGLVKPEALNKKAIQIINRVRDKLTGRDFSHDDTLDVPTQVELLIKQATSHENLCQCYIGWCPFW", "assay": "In Vitro mTOR Kinase Assay, Test (a)(i) (AlphaScreen)", "format": "biochemical", "conditions": "read-out: IC50 versus mTOR kinase", "procedure": "(a)(i) In Vitro mTOR Kinase Assay\nThe assay used AlphaScreen technology (Gray et al., Analytical Biochemistry, 2003, 313: 234-245) to determine the ability of test compounds to inhibit phosphorylation by recombinant mTOR.\nThe HEK293 FLAG-tagged mTOR (1362-2549) stable cell line was routinely maintained at 37° C. with 5% CO2 up to a confluency of 70-90% in Dulbecco's modified Eagle's growth medium (DMEM; Invitrogen Limited, Paisley, UK Catalogue No. 41966-029) containing 10% heat-inactivated foetal calf serum (FCS; Sigma, Poole, Dorset, UK, Catalogue No. F0392), 1% L-glutamine (Gibco, Catalogue No. 25030-024) and 2 mg/ml Geneticin (G418 sulfate; Invitrogen Limited, UK Catalogue No. 10131-027). […]\nEach reaction was stopped by the addition of 10 μl of a mixture of EDTA (50 mM), bovine serum albumin (BSA; 0.5 mg/mL) and Tris-HCl pH7.4 buffer (50 mM) containing p70 S6 Kinase (T389) 1A5 Monoclonal Antibody (Cell Signalling Technology, Catalogue No. 9206B) and AlphaScreen Streptavidin donor and Protein A acceptor beads (200 ng; Perkin Elmer, Catalogue No. 6760002B and 6760137R respectively) were added and the assay plates were left for about 20 hours at room temperature in the dark. The resultant signals arising from laser light excitation at 680 nm were read using a Packard Envision instrument. […]\nmTOR enzyme inhibition for a given test compound was expressed as an IC50 value."}
{"smiles": "C[C@H]1COCCN1c1cc(CS(C)(=O)=O)nc(-c2ccc(NC(=S)Nc3ccccc3)cc2)n1", "note": "[Example 1b, 1-[4-[4-[(3S)-3-methylmorpholin-4-yl]-6-(methylsulfonylmethyl)pyrimidin-2-yl]phenyl]-3-phenyl-thiourea]", "values": [{"measurement": "IC50", "value": 550, "unit": "nM"}]}
